Laboratory results published in US10479792B2, “Compounds” (GlaxoSmithKline Intellectual Property Development Limited, priority 2015, dated 2019).

Legend:
Assay type in all cases: cell-based
Leishmania donovani [1] = assay: Leishmania donovani intracellular assay (Assay 5); conditions: THP-1, 96 h, eGFP amastigotes in THP-1 cells, 96 h incubation, read-out: pEC50 value against Leishmania donovani (converted)
Description: (§1) Assay 5. Leishmania donovani Intracellular Assay
(§2) Compounds were dispensed into black 384-well assay plates (Greiner) by acoustic dispensing (LabCyte ECHO). For potency determinations, eleven-point, one in three dilution curves were generated, with a top concentration of 50 μM. THP-1 human monocytes cells were dispensed in T225 tissue culture flasks and differentiated using 30 nM of PMA, after 24 hours they were infected overnight using Leishmania donovani expressing Green Fluorescent Protein (eGFP) amastigotes in the same T225 tissue culture flasks at a multiplicity of infection of 10. Next, any remaining free amastigotes were washed away with PBS and the infected THP-1 cells were harvested by trypsinisation. The infected cells were then plated into 384-well plates containing the compounds to be tested, at 3000 cells per well in RPMI media with 2% FBS and 25 mM Sodium bicarbonate. After 96 h incubation at 37° C. in presence of 5% CO2, the plates were fixed with 4% formaldehyde for 30 minutes, washed with PBS and stained with 0.1 mg/mL of DAPI for 30 minutes and washed again with PBS. The plates were imaged on a Perkin Elmer Opera high-content imaging system using a 20× air objective with two expositions, one for DAPI stain and other for eGFP. Images were analysed using the Acapella building blocks system (Perkin Elmer). The image analysis algorithm first identified the THP-1 nuclei followed by demarcation of the cytoplasm and identification of intracellular amastigotes. This algorithm reported mean number of parasites per THP-1 cell, the percentage of infected THP-1 cells and the total number of THP-1 cells.

THP-1 cells = assay: Leishmania donovani intracellular assay (Assay 5), THP-1 cytotoxicity; conditions: human, 96 h incubation, read-out: cytotoxicity against THP-1 cells, pEC50 (converted)
Description: as §1, §2

Leishmania donovani [2] = assay: Intramacrophage Leishmania donovani assay (Assay 1), average number of amastigotes per cell (potency readout); conditions: THP-1, 96 h, amastigotes in PMA-differentiated THP-1 macrophages, 96 h incubation, read-out: pEC50 value against Leishmania donovani (converted)
Description: Assay 1. Intramacrophage Leishmania donovani Assay
The intramacrophage Leishmania assay was performed using a modified version of the method described in De Rycker et al. (Antimicrob Agents Chemother. 2013 July; 57(7):2913-22. Comparison of a high-throughput high-content intracellular Leishmania donovani assay with an axenic amastigote assay. De Rycker M, Hallyburton I, Thomas J, Campbell L, Wyllie S, Joshi D, Cameron S, Gilbert I H, Wyatt P G, Frearson J A, Fairlamb A H, Gray D W.). Procedure: 350 nl of compound was pre-dispensed into 384 well sterile intermediary plates. For single point screening, amphotericin B was added to all wells of column 24 as a positive control (final concentration 2 μM) and DMSO to column 23. For potency determinations, ten-point, one in three dilution curves were created with the highest concentration being 50 μM and on each plate a control curve of amphotericin B was included. Controls were as follows: columns 11 and 12: DMSO, columns 23 and 24: amphotericin B (final concentration 2 μM). To the intermediary plates, 35 μl of THP-1 media was added and plates were shaken for >5 min to ensure complete mixing. THP-1 cells (8,000 per well, 50 μl) were plated into black clear-bottom 384 well plates (Corning) in presence of 20 nM PMA. After 20 min at RT, the plates were incubated at 37° C. under 5% CO2 in a humidified incubator for 75 h. The cells were then washed with […] sterile phosphate buffered saline (PBS) supplemented with 1 mM CaCl2, 0.5 mM MgCl2, 0.1% (w/v) bovine serum albumin (PBS-A) and amastigotes were added to all wells at a multiplicity of infection of 5 (40,000 amastigotes per well). After 40 min at RT, plates were returned to the incubator. Amastigotes were incubated in the presence of THP-1 macrophages for 16 h. Any remaining extracellular amastigotes were subsequently removed with an overflow wash of 1 mL PBS-A per well (wash buffer is being aspirated from the top of the well as it is being dispensed) followed by addition of 25 μl of the compound pre-dilutions using a Fluidx Ipette-pro pipetting station. The final dilution of each compound was 200-fold. Plates were incubated for 96 h and then washed (250 μl PBS-A) and fixed (4% (v/v) formaldehyde-PBS, 30 min, RT). After fixation, the wells were washed with 250 μl PBS, stained (10 μg/mL DAPI, 0.4 μg mL-1 HCS Cellmask Deep Red in PBS+0.1% (v/v) Triton X-100, 30 min, RT) and washed with 250 μl PBS. Finally, PBS+0.05% (v/v) thimerosal was added to the wells, the plates were sealed and imaged on a high-content microscope (GE IN Cell 2000) using a 10× objective. Image analysis was carried out with GE IN Cell Analyzer 1000 Workstation using the “Multi Target Analysis” module. Settings for segmentation were as follows: nuclei: minimum area: 142.384 μm2, sensitivity: 81, method: top-hat; cells: characteristic area: 2500 μm2, sensitivity: 60, method: multiscale top-hat; organelles (amastigotes): granule size 1-3, 3 scales, sensitivity: 90, detection in entire cell. For each well, i) THP-1 cell count (cytotoxicity readout) and ii) average number of amastigotes per cell (potency readout) were calculated, both in terms of pEC50 values.

## O=C(Nc1cccc(-c2ccn3c(-c4ccccc4)cnc3n2)c1)N1CCCC1 [Example 2, N-(3-(3-phenylimidazo[1,2-a]pyrimidin-7-yl)phenyl)pyrrolidine-1-carboxamide]
Leishmania donovani [1]
  EC50: 0.126 to 10 µM
THP-1 cells
  EC50 at 96 h: 12.6 to 50.1 µM
Leishmania donovani [2]
  EC50: 0.251 to 10 µM

## O=C(Nc1ccc(F)c(-c2ccn3c(N4CCOCC4)cnc3n2)c1)N1CCC(F)(F)C1 [Example 25, 3,3-difluoro-N-(4-fluoro-3-(3-morpholinoimidazo[1,2-a]pyrimidin-7-yl)phenyl)pyrrolidine-1-carboxamide]
Leishmania donovani [1]
  EC50: 0.126 to 10 µM
Leishmania donovani [2]
  EC50: 12.6 to 20 µM

## O=C(Nc1ccc(F)c(-c2ccn3c(-c4cnccn4)cnc3n2)c1)N1CCCC1 [Example 27, N-(4-fluoro-3-(3-(pyrazin-2-yl)imidazo[1,2-a]pyrimidin-7-yl)phenyl)pyrrolidine-1-carboxamide]
Leishmania donovani [1]
  EC50: 0.126 to 10 µM
Leishmania donovani [2]
  EC50: 0.251 to 10 µM

## CC1CN(c2cnc3nc(-c4cc(NC(=O)N5CCCC5)ccc4F)ccn23)CCO1 (stereo not drawn) [Example 29, N-(4-fluoro-3-(3-(2-methylmorpholino)imidazo[1,2-a]pyrimidin-7-yl)phenyl)pyrrolidine-1-carboxamide]
Leishmania donovani [1]
  EC50: 0.126 to 10 µM
Leishmania donovani [2]
  EC50: 0.251 to 10 µM

## C[C@@H]1CN(c2cnc3nc(-c4cc(NC(=O)N5CCCC5)ccc4F)ccn23)C[C@H](C)O1 [Example 30, N-(3-(3-((2S,6R)-2,6-dimethylmorpholino)imidazo[1,2-a]pyrimidin-7-yl)-4-fluorophenyl)pyrrolidine-1-carboxamide]
Leishmania donovani [1]
  EC50: 0.126 to 10 µM
Leishmania donovani [2]
  EC50: 0.251 to 10 µM

## CC1COCCN1c1cnc2nc(-c3cc(NC(=O)N4CCCC4)ccc3F)ccn12 (stereo not drawn) [Example 31, N-(4-fluoro-3-(3-(3-methylmorpholino)imidazo[1,2-a]pyrimidin-7-yl)phenyl)pyrrolidine-1-carboxamide]
Leishmania donovani [1]
  EC50: 0.126 to 10 µM
Leishmania donovani [2]
  EC50: 0.251 to 10 µM

## O=C(Nc1ccc(F)c(-c2ccn3c(N4CCNCC4)cnc3n2)c1)N1CCCC1 [Example 32, N-(4-fluoro-3-(3-(piperazin-1-yl)imidazo[1,2-a]pyrimidin-7-yl)phenyl)pyrrolidine-1-carboxamide]
Leishmania donovani [1]
  EC50: 12.6 to 39.8 µM
Leishmania donovani [2]
  EC50: > 50.1 µM

## C[C@@H]1CCCN1C(=O)Nc1ccc(F)c(-c2ccn3c(N4CCOCC4)cnc3n2)c1 [Example 33, N-(4-fluoro-3-(3-morpholinoimidazo[1,2-a]pyrimidin-7-yl)phenyl)-2-methylpyrrolidine-1-carboxamide]
Leishmania donovani [1]
  EC50: 0.126 to 10 µM
Leishmania donovani [2]
  EC50: 0.251 to 10 µM

## C[C@@H]1CCN(C(=O)Nc2ccc(F)c(-c3ccn4c(N5CCOCC5)cnc4n3)c2)C1 [Example 34]
Leishmania donovani [1]
  EC50: 0.126 to 10 µM
Leishmania donovani [2]
  EC50: 0.251 to 10 µM

## CC(C)(C)OC(=O)N1CCN(c2cnc3nc(-c4cc(NC(=O)N5CCCC5)ccc4F)ccn23)CC1 [Example 35, tert-butyl 4-(7-(2-fluoro-5-(pyrrolidine-1-carboxamido)phenyl)imidazo[1,2-a]pyrimidin-3-yl)piperazine-1-carboxylate]
Leishmania donovani [1]
  EC50: 0.126 to 10 µM
Leishmania donovani [2]
  EC50: 0.251 to 10 µM

## CN1CCN(c2cnc3nc(-c4cc(NC(=O)N5CCCC5)ccc4F)ccn23)CC1 [Example 36, N-(4-fluoro-3-(3-(4-methylpiperazin-1-yl)imidazo[1,2-a]pyrimidin-7-yl)phenyl)pyrrolidine-1-carboxamide]
Leishmania donovani [1]
  EC50: 0.126 to 10 µM
Leishmania donovani [2]
  EC50: 12.6 to 20 µM

## Cc1nc(C)c(C(=O)Nc2ccc(F)c(-c3ccn4c(N5CCOCC5)cnc4n3)c2)o1 [Example 39, N-(4-fluoro-3-(3-morpholinoimidazo[1,2-a]pyrimidin-7-yl)phenyl)-2,4-dimethyloxazole-5-carboxamide]
Leishmania donovani [1]
  EC50: 0.126 to 10 µM
Leishmania donovani [2]
  EC50: 0.251 to 10 µM

## C[C@H]1CN(c2cnc3nc(-c4cc(NC(=O)N5CCCC5)ccc4F)ccn23)CCO1 [Example 40, (S)—N-(4-fluoro-3-(3-(2-methylmorpholino)imidazo[1,2-a]pyrimidin-7-yl)phenyl)pyrrolidine-1-carboxamide]
Leishmania donovani [1]
  EC50: 0.126 to 10 µM
Leishmania donovani [2]
  EC50: 0.251 to 10 µM

## CC1(C)CN(c2cnc3nc(-c4cc(NC(=O)N5CCCC5)ccc4F)ccn23)CCO1 [Example 41, N-(3-(3-(2,2-dimethylmorpholino)imidazo[1,2-a]pyrimidin-7-yl)-4-fluorophenyl)pyrrolidine-1-carboxamide]
Leishmania donovani [1]
  EC50: 0.126 to 10 µM
Leishmania donovani [2]
  EC50: 0.251 to 10 µM

## CC1(C)COCCN1c1cnc2nc(-c3cc(NC(=O)N4CCCC4)ccc3F)ccn12 [Example 42, N-(3-(3-(3,3-dimethylmorpholino)imidazo[1,2-a]pyrimidin-7-yl)-4-fluorophenyl)pyrrolidine-1-carboxamide]
Leishmania donovani [1]
  EC50: 0.126 to 10 µM
Leishmania donovani [2]
  EC50: 0.251 to 10 µM

## CN1CCOCC1c1cnc2nc(-c3cc(NC(=O)N4CCCC4)ccc3F)ccn12 (stereo not drawn) [Example 43, N-(4-fluoro-3-(3-(4-methylmorpholin-3-yl)imidazo[1,2-a]pyrimidin-7-yl)phenyl)pyrrolidine-1-carboxamide]
Leishmania donovani [1]
  EC50: 0.126 to 10 µM
Leishmania donovani [2]
  EC50: 0.251 to 10 µM

## CC(C)(C)OC(=O)N1CCOCC1c1cnc2nc(-c3cc(NC(=O)N4CCCC4)ccc3F)ccn12 (stereo not drawn) [Example 44, tert-butyl 3-(7-(2-fluoro-5-(pyrrolidine-1-carboxamido)phenyl)imidazo[1,2-a]pyrimidin-3-yl)morpholine-4-carboxylate]
Leishmania donovani [1]
  EC50: 0.126 to 10 µM
Leishmania donovani [2]
  EC50: 0.251 to 10 µM

## O=C(Nc1cc(-c2ccn3c(N4CCOCC4)cnc3n2)c(F)cc1F)N1CCCC1 [Example 46, N-(2,4-difluoro-5-(3-morpholinoimidazo[1,2-a]pyrimidin-7-yl)phenyl)pyrrolidine-1-carboxamide]
Leishmania donovani [1]
  EC50: 0.126 to 10 µM
Leishmania donovani [2]
  EC50: > 50.1 µM

## COC1CCN(c2cnc3nc(-c4cc(NC(=O)N5CCCC5)ccc4F)ccn23)CC1 [Example 47, N-(4-fluoro-3-(3-(4-methoxypiperidin-1-yl)imidazo[1,2-a]pyrimidin-7-yl)phenyl)pyrrolidine-1-carboxamide]
Leishmania donovani [1]
  EC50: 0.126 to 10 µM
Leishmania donovani [2]
  EC50: 0.251 to 10 µM

## CC(=O)N1CCN(c2cnc3nc(-c4cc(NC(=O)N5CCCC5)ccc4F)ccn23)CC1 [Example 48, N-(3-(3-(4-acetylpiperazin-1-yl)imidazo[1,2-a]pyrimidin-7-yl)-4-fluorophenyl)pyrrolidine-1-carboxamide]
Leishmania donovani [1]
  EC50: 0.126 to 10 µM
Leishmania donovani [2]
  EC50: > 50.1 µM

## CC1CN(C(=O)Nc2ccc(F)c(-c3ccn4c(N5CCOCC5)cnc4n3)c2)C1 [Example 49, N-(4-fluoro-3-(3-morpholinoimidazo[1,2-a]pyrimidin-7-yl)phenyl)-3-methylazetidine-1-carboxamide]
Leishmania donovani [1]
  EC50: 0.126 to 10 µM
Leishmania donovani [2]
  EC50: 12.6 to 20 µM

## O=C(Nc1ccc(F)c(-c2cc(C(=O)N3CCCC3)n3ccnc3n2)c1)N1CCCC1 [Example 50, N-(4-fluoro-3-(5-(pyrrolidine-1-carbonyl)imidazo[1,2-a]pyrimidin-7-yl)phenyl)pyrrolidine-1-carboxamide]
Leishmania donovani [1]
  EC50: 12.6 to 39.8 µM
Leishmania donovani [2]
  EC50: > 50.1 µM
